Common to all, as to type: cell-based
Data set [1] addresses T1, TASK-1 (Homo sapiens, UniProt O14649).
T1 construct: expressed in transfected cells; host or cells: HEK293
The experiment in a line: Tl+-flux selectivity panel in HEK-293 cells: TASK-1. Conditions: HEK293, 10 µM test compound, relative to control bepridil, read-out: Percent Inhibition ± SEM. On the procedure:
(§1) With a handful of analogs that offered improved SLACK potency relative to hit compound 8, we next proceeded to investigate the ancillary pharmacology of such compounds, both with respect to other Slo family members as well as versus a spectrum of diverse ion channels (Table 5). Thus, we screened four compounds (32, 48, 70, and 71) at 10 µM in our in-house selectivity panel of Tl^+-flux assays in HEK-293 cells stably expressing the target of interest. […] Some valuable SAR was noted as well. […] Reduction of inhibition at Maxi-K α1/β4 also followed. This SAR will be important to bear in mind for continued optimization within this series. […] Of particular note is the lack of significant hERG activity in this series, as activity versus that counter-target has been an issue with other SLACK inhibitors.
(§2) Stably transfected monoclonal HEK293 cell lines expressing Slick, Maxi-K α1/β3, Maxi-K α1/β4, CaV3.2, GIRK 1/2, KV2.1, KV7.2, NaV1.7, and TASK-1 were generated as previously described. Stably transfected monoclonal HEK293 cell lines expressing hERG were generated as previously described. CHO-K1 cells expressing human Slack and disease-associated human Slack mutations, G288S and A934T, were generated by transfecting a PiggyBac TRE mammalian expression vector (VectorBuilder, Chicago, IL, USA) containing KCNT1. FuGENE 6 (Promega, Madison, WI, USA) transfection reagent and protocol, together with Opti-MEM (Thermo Fisher Scientific, Walkham, MA, USA), were utilized.
(§3) The Tl^+ flux assays were conducted as previously described with modifications optimized for individual cell lines as described below. Following removal of cell culture media, cells were loaded with Tl^+-sensitive dye loading solution containing Thallos-AM (ION Biosciences, San Marcos, TX, USA), 1.25 mM Probenecid, and 0.3% Pluronic F-127 (MilliporeSigma, Burlington, MA, USA), in assay buffer comprised of Hanks Balanced Salt Solution (HBSS) (Thermo Fisher Scientific, Waltham, MA, USA) and 20 mM HEPES (Corning, Corning, NY, USA) at room temperature for one-hour. Dye loading solution was replaced with 20 μL/well of assay buffer prior to assaying. Cell plates were then loaded onto a Panoptic kinetic imaging plate reader (WaveFront Biosciences, Franklin, TN, USA). Data were acquired at 5 Hz (excitation 482 ± 35 nm, emission 536 ± 40 nm) for 10 s, at which time 20 μL/well of test compounds in assay buffer at 2-fold above the desired final concentration was added and allowed to incubate for 120 s. Next, 10 μL/well of Tl^+ stimulus buffer (129 mM Na gluconate, 1.2 mM CaSO4, 1 MgSO4, 1 mM Na2HPO4, 4.17 mM NaHCO3, 5.56 mM glucose, 2.5 mM Tl2SO4, and 10 mM HEPES pH 7.3) was added. Imaging was concluded after an additional 120 s.

Data set [2] has as its target T2, Maxi-K α1/β4 (Homo sapiens, UniProt Q12791).
T2 construct: expressed in transfected cells; host or cells: HEK293
Kind of data set: Tl+-flux selectivity panel in HEK-293 cells: Maxi-K α1/β4. Conditions: HEK293, 10 µM test compound, relative to control paxilline, read-out: Percent Inhibition ± SEM. As to the method:
as §1, §2, §3

The target of data set [3] is T3, GIRK 1/2 (Homo sapiens, UniProt P48051+P48549).
T3 construct: expressed in transfected cells; host or cells: HEK293
T3 sequence (P48549 1-501): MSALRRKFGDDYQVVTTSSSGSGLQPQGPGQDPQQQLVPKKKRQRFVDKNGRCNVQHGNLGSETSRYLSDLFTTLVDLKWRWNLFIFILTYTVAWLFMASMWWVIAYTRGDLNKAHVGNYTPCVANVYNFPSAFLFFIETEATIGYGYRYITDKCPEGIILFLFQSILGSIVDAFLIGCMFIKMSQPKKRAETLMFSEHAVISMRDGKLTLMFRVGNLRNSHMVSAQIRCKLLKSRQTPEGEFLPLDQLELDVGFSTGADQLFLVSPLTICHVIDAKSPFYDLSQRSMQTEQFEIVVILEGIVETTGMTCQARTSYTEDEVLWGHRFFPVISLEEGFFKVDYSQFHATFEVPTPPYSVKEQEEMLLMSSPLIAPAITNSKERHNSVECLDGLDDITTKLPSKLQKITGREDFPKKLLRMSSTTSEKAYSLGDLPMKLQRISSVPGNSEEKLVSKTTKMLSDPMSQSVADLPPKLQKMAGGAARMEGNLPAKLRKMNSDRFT
T3 sequence (P48051 1-423): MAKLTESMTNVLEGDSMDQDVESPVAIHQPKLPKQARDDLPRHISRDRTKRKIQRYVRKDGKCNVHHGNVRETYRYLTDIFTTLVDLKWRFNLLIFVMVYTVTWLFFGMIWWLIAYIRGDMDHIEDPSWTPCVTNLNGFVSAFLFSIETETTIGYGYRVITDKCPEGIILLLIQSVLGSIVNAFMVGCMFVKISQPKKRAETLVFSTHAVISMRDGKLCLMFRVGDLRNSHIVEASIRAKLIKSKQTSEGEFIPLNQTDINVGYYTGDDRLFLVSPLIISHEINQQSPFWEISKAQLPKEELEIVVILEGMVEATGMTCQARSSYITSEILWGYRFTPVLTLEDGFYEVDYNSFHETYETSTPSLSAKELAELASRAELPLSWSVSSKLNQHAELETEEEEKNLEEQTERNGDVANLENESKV
The experiment in a line: Tl+-flux selectivity panel in HEK-293 cells: GIRK 1/2. Conditions: HEK293, 10 µM test compound, relative to control SCH23390, read-out: Percent Inhibition ± SEM. On the procedure: as §1, §2, §3

Data set [4] addresses T4, CaV3.2 (Homo sapiens, UniProt O95180).
T4 construct: expressed in transfected cells; host or cells: HEK293
Kind of data set: Tl+-flux selectivity panel in HEK-293 cells: CaV3.2. The following applies: HEK293, 10 µM test compound, relative to control bepridil, read-out: Percent Inhibition ± SEM. On the procedure:
as §1, §2, §3

For data set [5], the target named is T5, hERG (Homo sapiens, UniProt Q12809).
T5 construct: expressed in transfected cells; host or cells: HEK293
T5 sequence (Q12809 whole entry): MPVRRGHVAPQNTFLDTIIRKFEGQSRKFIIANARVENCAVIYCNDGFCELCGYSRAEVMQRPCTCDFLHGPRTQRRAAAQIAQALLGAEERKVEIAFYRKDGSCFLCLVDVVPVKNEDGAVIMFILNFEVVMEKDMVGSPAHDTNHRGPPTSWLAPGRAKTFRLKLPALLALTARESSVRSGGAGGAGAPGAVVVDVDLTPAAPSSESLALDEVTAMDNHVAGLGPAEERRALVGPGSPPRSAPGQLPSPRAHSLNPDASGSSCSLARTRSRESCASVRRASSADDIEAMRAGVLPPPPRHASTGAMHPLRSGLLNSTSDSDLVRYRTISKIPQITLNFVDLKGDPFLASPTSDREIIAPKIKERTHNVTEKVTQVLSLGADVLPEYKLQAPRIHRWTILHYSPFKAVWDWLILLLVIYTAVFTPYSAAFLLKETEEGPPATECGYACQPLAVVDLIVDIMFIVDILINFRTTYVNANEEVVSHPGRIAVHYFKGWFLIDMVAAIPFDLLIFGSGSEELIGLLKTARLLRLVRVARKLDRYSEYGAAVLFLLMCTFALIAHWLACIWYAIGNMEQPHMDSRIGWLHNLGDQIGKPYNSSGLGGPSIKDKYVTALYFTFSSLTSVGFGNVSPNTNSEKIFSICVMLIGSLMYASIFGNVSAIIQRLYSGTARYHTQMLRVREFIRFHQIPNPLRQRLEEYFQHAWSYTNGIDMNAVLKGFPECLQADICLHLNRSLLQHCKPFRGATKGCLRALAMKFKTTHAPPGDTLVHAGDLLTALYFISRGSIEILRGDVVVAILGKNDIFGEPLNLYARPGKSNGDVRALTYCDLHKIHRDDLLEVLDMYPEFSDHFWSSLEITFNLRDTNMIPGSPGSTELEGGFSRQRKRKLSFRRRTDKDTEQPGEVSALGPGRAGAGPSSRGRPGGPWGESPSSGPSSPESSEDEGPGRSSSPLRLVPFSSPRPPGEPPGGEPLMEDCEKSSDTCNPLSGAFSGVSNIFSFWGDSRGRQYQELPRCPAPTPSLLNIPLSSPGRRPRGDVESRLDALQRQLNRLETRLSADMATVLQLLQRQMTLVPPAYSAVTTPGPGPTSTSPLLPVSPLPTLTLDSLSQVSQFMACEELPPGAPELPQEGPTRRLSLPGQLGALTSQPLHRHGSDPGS
The experiment in a line: Tl+-flux selectivity panel in HEK-293 cells: hERG. Conditions: HEK-293 cells stably expressing hERG, 10 µM test compound, relative to control bepridil, read-out: Percent Inhibition ± SEM. As to the method: as §1, §2, §3
(hERG is a cardiac potassium channel; its block is linked to QT prolongation.)

Data set [6] addresses T6, NaV1.7 (Homo sapiens, UniProt Q15858).
T6 construct: expressed in transfected cells; host or cells: HEK293
The experiment in a line: Tl+-flux selectivity panel in HEK-293 cells: NaV1.7. Conditions: HEK293, 10 µM test compound, relative to control TC-N 1752, read-out: Percent Inhibition ± SEM. On the procedure:
as §1, §2, §3

Consider 4 compounds from publication PMC11173529, “Structure–Activity Relationship Studies in a Series of Xanthine Inhibitors of SLACK Potassium Channels” (Molecules, 2024).

T2 sequence (Q12791 whole entry): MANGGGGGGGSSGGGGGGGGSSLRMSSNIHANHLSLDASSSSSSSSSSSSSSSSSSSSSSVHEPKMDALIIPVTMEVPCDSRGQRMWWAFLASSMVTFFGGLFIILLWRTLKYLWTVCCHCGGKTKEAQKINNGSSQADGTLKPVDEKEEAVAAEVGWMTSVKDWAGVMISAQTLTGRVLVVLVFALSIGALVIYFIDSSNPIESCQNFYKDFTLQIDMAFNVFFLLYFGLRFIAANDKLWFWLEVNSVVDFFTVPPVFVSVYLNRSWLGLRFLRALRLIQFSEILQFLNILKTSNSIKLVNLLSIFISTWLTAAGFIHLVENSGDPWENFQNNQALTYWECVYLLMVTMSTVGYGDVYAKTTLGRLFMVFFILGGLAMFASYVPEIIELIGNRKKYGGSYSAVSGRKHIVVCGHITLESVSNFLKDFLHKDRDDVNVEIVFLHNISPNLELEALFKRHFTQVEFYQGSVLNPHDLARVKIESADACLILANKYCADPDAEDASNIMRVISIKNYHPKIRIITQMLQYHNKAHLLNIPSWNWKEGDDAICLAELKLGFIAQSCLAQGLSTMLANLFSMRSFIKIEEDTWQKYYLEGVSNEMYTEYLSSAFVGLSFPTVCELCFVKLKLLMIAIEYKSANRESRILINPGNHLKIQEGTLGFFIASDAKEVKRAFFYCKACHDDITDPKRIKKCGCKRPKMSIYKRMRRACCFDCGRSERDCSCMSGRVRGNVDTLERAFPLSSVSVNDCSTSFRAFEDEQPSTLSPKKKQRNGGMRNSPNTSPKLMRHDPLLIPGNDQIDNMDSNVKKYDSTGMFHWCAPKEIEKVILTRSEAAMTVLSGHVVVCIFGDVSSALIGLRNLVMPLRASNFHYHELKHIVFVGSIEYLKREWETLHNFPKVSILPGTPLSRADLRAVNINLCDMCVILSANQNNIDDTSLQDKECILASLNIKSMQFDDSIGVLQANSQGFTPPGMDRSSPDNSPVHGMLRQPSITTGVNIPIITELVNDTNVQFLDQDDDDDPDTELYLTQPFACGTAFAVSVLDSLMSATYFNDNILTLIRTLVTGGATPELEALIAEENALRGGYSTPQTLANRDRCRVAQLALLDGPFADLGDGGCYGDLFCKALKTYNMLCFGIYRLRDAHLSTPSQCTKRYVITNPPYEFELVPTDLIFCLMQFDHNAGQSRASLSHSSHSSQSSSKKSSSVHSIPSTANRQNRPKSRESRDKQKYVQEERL
T2 sequence (Q86W47 whole entry partner): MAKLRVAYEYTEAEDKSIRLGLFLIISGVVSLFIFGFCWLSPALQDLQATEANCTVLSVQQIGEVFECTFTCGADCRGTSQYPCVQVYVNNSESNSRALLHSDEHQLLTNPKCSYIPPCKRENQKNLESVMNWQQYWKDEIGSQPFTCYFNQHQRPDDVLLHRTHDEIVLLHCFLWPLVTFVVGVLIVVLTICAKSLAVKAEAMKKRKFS
T4 sequence (O95180 whole entry): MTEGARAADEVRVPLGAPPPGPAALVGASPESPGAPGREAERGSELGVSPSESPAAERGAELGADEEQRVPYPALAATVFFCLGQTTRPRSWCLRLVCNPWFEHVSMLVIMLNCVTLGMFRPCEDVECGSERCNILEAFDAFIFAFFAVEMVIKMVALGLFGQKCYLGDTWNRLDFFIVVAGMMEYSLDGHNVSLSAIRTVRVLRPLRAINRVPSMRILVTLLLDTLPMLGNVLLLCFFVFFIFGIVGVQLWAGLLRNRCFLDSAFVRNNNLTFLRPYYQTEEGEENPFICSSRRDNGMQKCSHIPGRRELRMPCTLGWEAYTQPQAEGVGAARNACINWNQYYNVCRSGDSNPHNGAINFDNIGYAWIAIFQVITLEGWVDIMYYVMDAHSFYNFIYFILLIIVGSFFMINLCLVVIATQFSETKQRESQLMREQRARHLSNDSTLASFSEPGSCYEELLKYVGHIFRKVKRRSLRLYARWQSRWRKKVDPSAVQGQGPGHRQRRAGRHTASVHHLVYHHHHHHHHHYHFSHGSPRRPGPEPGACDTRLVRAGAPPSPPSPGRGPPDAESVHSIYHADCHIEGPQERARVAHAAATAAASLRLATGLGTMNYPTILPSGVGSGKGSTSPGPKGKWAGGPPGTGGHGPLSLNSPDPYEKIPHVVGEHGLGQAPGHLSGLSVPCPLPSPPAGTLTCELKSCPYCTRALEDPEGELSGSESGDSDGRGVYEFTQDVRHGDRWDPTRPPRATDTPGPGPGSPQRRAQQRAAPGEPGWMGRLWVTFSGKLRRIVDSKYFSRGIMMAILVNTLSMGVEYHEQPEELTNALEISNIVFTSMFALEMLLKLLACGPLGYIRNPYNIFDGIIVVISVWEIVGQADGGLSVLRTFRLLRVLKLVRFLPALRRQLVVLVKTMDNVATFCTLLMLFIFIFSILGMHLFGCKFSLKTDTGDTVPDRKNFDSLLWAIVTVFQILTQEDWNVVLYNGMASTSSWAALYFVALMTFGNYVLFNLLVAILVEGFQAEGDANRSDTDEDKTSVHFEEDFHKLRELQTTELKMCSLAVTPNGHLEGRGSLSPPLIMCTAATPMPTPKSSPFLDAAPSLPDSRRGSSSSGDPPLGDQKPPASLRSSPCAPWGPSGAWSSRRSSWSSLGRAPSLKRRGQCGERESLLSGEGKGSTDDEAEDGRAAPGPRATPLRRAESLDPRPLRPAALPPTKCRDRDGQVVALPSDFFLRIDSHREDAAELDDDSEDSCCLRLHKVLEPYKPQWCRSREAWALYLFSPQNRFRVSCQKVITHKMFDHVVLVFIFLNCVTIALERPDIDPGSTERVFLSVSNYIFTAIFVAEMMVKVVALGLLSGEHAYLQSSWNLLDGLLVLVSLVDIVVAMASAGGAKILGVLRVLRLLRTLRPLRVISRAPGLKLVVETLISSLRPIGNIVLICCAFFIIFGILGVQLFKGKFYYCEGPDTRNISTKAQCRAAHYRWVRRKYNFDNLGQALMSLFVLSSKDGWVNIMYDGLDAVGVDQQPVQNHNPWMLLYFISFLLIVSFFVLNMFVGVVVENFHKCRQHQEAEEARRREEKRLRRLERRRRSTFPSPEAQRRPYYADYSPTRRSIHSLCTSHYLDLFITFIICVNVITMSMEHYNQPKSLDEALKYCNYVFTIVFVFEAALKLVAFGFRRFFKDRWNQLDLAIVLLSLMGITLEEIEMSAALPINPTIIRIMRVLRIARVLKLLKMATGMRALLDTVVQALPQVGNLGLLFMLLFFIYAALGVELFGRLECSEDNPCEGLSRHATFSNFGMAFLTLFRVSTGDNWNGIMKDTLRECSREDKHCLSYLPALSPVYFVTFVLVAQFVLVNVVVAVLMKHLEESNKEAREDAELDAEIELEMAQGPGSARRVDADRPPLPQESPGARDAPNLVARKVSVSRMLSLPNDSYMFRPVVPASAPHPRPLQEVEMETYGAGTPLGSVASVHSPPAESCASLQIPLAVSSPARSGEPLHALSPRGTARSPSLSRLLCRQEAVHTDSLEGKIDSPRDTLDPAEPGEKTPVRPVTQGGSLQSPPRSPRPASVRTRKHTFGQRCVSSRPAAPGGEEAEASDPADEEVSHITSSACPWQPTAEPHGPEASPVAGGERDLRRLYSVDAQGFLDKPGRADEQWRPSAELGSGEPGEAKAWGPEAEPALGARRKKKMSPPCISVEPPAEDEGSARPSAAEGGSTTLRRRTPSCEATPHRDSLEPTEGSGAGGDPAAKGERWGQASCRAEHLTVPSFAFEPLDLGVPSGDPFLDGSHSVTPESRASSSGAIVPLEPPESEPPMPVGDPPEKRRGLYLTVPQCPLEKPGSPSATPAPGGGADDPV

Take `COc1cccc(Cn2c(=O)c3c(nc(N(C)Cc4ccccc4)n3C)n(C)c2=O)c1` [Analog 32]: the inhibition (commonly the relative decrease from the control value, in per cent) at 10 µM was found to be 17 ± 2.3% in data set [1]; 48 ± 2% in data set [2]; 19 ± 1.7% in data set [3]; 18 ± 1.6% in data set [4]; 41 ± 3.3% in data set [6]. Moreover, the inhibition at 120 s, 10 µM in data set [5] is 4.6 ± 4.5%.

Take `CN(Cc1cccc(F)c1)c1nc2c(c(=O)n(Cc3ccccc3)c(=O)n2C)n1C` [Analog 48]: the inhibition at 10 µM in data set [1] amounted to 24 ± 2.3%; in data set [2], 42 ± 4.6%; in data set [3], 32 ± 3%; in data set [4], 17 ± 4.2%; in data set [6] it was 39 ± 3.1%. In data set [5], the inhibition at 120 s, 10 µM was -2.8 ± 2.4%.

Turning to `CCCCN(Cc1ccccc1)c1nc2c(c(=O)n(Cc3ccccc3)c(=O)n2C)n1C` [Analog 70], the inhibition at 10 µM worked out at 23 ± 2.9% in data set [1]; 8.5 ± 2.1% in data set [2]; 9.2 ± 1.4% in data set [3]; 16 ± 2.2% in data set [4]; 33 ± 1.4% in data set [6]. In addition, the inhibition at 120 s, 10 µM in data set [5] came to 22 ± 2%.

For the compound `Cn1c(N(Cc2ccccc2)CC2CC2)nc2c1c(=O)n(Cc1ccccc1)c(=O)n2C` [Analog 71], the inhibition at 10 µM turned out to be 4.9 ± 1.5% in data set [1]; 12 ± 3.9% in data set [2]; 12 ± 0.5% in data set [3]; 24 ± 3.6% in data set [4]; 29 ± 3% in data set [6]. In addition, the inhibition at 120 s, 10 µM in data set [5] turned out to be 23 ± 4%.
